Assay results taken from US20250108038A1 (priority 2023, published 2025).
Where two headings read alike, the source gives them in different places.

How the values were obtained:
OCT1 = molecular target: T1, OCT1 (Homo sapiens, UniProt O15245); assay: Uptake transporter inhibition assay, OCT1 (sumatriptan)
T1 sequence (O15245 1-554): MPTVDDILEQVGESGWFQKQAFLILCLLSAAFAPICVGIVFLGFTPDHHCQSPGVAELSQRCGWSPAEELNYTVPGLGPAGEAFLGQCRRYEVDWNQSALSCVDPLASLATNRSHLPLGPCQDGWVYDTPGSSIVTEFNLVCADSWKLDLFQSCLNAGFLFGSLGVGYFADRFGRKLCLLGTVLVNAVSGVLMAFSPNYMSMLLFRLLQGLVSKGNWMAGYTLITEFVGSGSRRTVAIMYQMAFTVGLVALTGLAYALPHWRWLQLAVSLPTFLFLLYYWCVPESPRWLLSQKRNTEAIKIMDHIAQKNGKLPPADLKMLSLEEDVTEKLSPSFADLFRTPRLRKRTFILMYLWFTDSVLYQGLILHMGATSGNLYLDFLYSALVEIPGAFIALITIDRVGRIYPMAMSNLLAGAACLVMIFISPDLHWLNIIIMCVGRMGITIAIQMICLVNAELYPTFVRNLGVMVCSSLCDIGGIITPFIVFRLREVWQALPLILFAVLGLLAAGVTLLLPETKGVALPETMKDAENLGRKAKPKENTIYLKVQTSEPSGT
Protocol: Uptake experiments were performed using HEK293 cells stably expressing the respective uptake transporters. The assays were conducted according to the actual SOLVO uptake transporter assay protocols (PR-ASY-UPT-General Protocol for Uptake Transporter Inhibition Assays).
Cells were cultured at 37° C. in a humidified atmosphere containing 5% CO2 and were plated onto standard 96-well tissue culture plates.
Before the experiment, the medium was removed, and the cells were washed twice with 100 μL of pre-warmed (37° C.) assay buffer listed in Table 15. The cells were pre-incubated at 37° C. for 30 minutes in assay buffer containing the test article at appropriate concentrations (Table 16), appropriate solvents for solvent controls and the reference inhibitor for reference inhibitor wells. After the pre-incubation step solutions were removed. Uptake experiments were performed at 37° C. in 50 μL of assay buffer containing the probe substrate and the test article or solvent and controls.
After the experiment, cells were washed twice with 100 μL of appropriate cold buffer and lysed with 150 μL scintillation cocktail. Radiolabeled probe substrate transport was determined by liquid scintillation counting.
Uptake of the probe substrate in control cells provided background activity values for all data points.

MATE2-K = MATE2-K (Homo sapiens, UniProt Q86VL8); assay: Uptake transporter inhibition assay, MATE2-K (metformin)
[1] = 0.14 μM nominal, 0.09 μM NSB corrected, follow-up assay
[2] = 1.24 μM nominal, 0.86 μM NSB corrected, follow-up assay
[3] = 10.00 μM nominal, 6.60 μM NSB corrected
[4] = 11.11 μM nominal, 7.89 μM NSB corrected, follow-up assay
[5] = 33.33 μM nominal, 24.33 μM NSB corrected, follow-up assay
[6] = 100.00 μM nominal, 77.00 μM NSB corrected
[7] = 100.00 μM nominal, 100.00 μM NSB corrected, follow-up assay
[8] = […] nominal, 1.89 μM NSB corrected, follow-up assay
[9] = follow-up assay, NSB-corrected concentrations for Compound I-19
[10] = 0.14 μM nominal, 0.08 μM NSB corrected, follow-up assay
[11] = 1.24 μM nominal, 0.79 μM NSB corrected, follow-up assay
[12] = 10.00 μM nominal, 6.50 μM NSB corrected
[13] = 11.11 μM nominal, 6.11 μM NSB corrected, follow-up assay
[14] = 33.33 μM nominal, 20.33 μM NSB corrected, follow-up assay
[15] = 100.00 μM nominal, 67.00 μM NSB corrected
[16] = 100.00 μM nominal, […] NSB corrected, follow-up assay
[17] = […] nominal, 2.37 μM NSB corrected, follow-up assay
[18] = 0.04 μM nominal, sumatriptan, IC50 determination, Table 122
[19] = 0.12 μM nominal, sumatriptan, IC50 determination, Table 122
[20] = 1.11 μM nominal, sumatriptan, IC50 determination, Table 122
[21] = 3.00 μM nominal, sumatriptan, Table 121
[22] = 10.00 μM nominal, sumatriptan, IC50 determination, Table 122
[23] = 30.00 μM nominal, sumatriptan, IC50 determination, Table 122
[24] = 30.00 μM nominal, sumatriptan, Table 121
[25] = 0.04 μM nominal, IC50 determination
[26] = 0.12 μM nominal, IC50 determination
[27] = 1.11 μM nominal, IC50 determination
[28] = 10.00 μM nominal, IC50 determination
[29] = 30.00 μM nominal, IC50 determination

Sequence of MATE2-K (Q86VL8 1-566 isoform Q86VL8-3): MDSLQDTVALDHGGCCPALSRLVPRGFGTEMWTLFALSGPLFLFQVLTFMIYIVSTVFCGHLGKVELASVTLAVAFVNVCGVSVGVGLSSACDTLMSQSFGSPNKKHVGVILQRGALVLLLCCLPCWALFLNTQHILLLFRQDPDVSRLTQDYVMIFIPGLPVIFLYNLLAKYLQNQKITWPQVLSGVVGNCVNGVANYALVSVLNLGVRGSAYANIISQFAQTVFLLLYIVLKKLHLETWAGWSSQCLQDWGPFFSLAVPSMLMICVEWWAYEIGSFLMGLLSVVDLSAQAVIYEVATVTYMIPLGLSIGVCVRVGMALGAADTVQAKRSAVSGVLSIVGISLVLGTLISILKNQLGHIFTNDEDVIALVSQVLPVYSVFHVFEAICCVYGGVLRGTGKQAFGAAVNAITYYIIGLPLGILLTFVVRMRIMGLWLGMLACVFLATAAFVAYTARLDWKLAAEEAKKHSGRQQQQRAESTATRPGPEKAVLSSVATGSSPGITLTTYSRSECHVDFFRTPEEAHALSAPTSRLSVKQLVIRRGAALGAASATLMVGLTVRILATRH

SMILES: Clc1ccc(C2(OCC3OCCO3)c3ccccc3C3=NCCN32)cc1 (stereo not drawn) [Compound I-19]
- Relative inhibition (OCT1; [1]): 16%
- Relative transporter specific accumulation (OCT1; [1]): 84.03 ± 3.76 % of control
- Transporter specific accumulation (OCT1; [1]): 896.33 ± 19.14 cpm
- Relative inhibition (OCT1; [2]): 39%
- Relative transporter specific accumulation (OCT1; [2]): 61.16 ± 2.59 % of control
- Transporter specific accumulation (OCT1; [2]): 652.33 ± 10.37 cpm
- Relative inhibition (OCT1; [3]): 71%
- Relative transporter specific accumulation (OCT1; [3]): 29.35 ± 0.48 % of control
- Transporter specific accumulation (OCT1; [3]): 930.00 ± 10.03 cpm
- Relative inhibition (OCT1; [4]): 73%
- Relative transporter specific accumulation (OCT1; [4]): 27.13 ± 1.77 % of control
- Transporter specific accumulation (OCT1; [4]): 289.33 ± 15.11 cpm
- Relative inhibition (OCT1; [5]): 86%
- Relative transporter specific accumulation (OCT1; [5]): 14.47 ± 0.94 % of control
- Transporter specific accumulation (OCT1; [5]): 154.33 ± 8.03 cpm
- Relative inhibition (OCT1; [6]): 92%
- Relative transporter specific accumulation (OCT1; [6]): 8.17 ± 0.48 % of control
- Transporter specific accumulation (OCT1; [6]): 259.00 ± 14.94 cpm
- Relative inhibition (OCT1; [7]): 92%
- Relative transporter specific accumulation (OCT1; [7]): 7.84 ± 1.11 % of control
- Transporter specific accumulation (OCT1; [7]): 83.67 ± 11.38 cpm
- maximum inhibition of OCT1-mediated sumatriptan accumulation (OCT1; 2-concentration assay, 100 μM (Compound A 30 μM)): 92%
- Maximum % inhibition (OCT1; OCT1, HEK293 cells, sumatriptan (10 μM), NIO: no inhibition observed): 92%
- Relative inhibition (OCT1; [8]): 55%
- Relative transporter specific accumulation (OCT1; [8]): 45.47 ± 2.44 % of control
- Transporter specific accumulation (OCT1; [8]): 485.00 ± 17.73 cpm
- maximum inhibition of OCT1-mediated sumatriptan accumulation (OCT1; follow-up assay): 92%
- IC50 (OCT1; [9]): 3.32 µM
- Relative inhibition (MATE2-K; [10]): 5%
- Relative transporter specific accumulation (MATE2-K; [10]): 95.22 ± 8.50 % of control
- Transporter specific accumulation (MATE2-K; [10]): 99.67 ± 6.15 cpm
- Relative inhibition (MATE2-K; [11]): 0%
- Relative transporter specific accumulation (MATE2-K; [11]): 100.32 ± 8.62 % of control
- Transporter specific accumulation (MATE2-K; [11]): 105.00 ± 5.96 cpm
- Relative inhibition (MATE2-K; [12]): 14%
- Relative transporter specific accumulation (MATE2-K; [12]): 85.87 ± 5.57 % of control
- Transporter specific accumulation (MATE2-K; [12]): 154.00 ± 7.39 cpm
- Relative inhibition (MATE2-K; [13]): 15%
- Relative transporter specific accumulation (MATE2-K; [13]): 84.71 ± 5.61 % of control
- Transporter specific accumulation (MATE2-K; [13]): 88.67 ± 1.33 cpm
- Relative inhibition (MATE2-K; [14]): 44%
- Relative transporter specific accumulation (MATE2-K; [14]): 56.05 ± 3.67 % of control
- Transporter specific accumulation (MATE2-K; [14]): 58.67 ± 0.67 cpm
- Relative inhibition (MATE2-K; [15]): 93%
- Relative transporter specific accumulation (MATE2-K; [15]): 7.06 ± 5.01 % of control
- Transporter specific accumulation (MATE2-K; [15]): 12.67 ± 8.97 cpm
- Relative inhibition (MATE2-K; [16]): 86%
- Relative transporter specific accumulation (MATE2-K; [16]): 14.01 ± 1.15 % of control
- Transporter specific accumulation (MATE2-K; [16]): 14.67 ± 0.75 cpm
- maximum inhibition of MATE2-K-mediated metformin accumulation (MATE2-K; 2-concentration assay, Compound I-19 100 μM, Compound A 30 μM, Compound B 80 μM): 93%
- Maximum % inhibition (MATE2-K; MATE2-K, HEK293 cells, metformin (10 μM), NIO: no inhibition observed): 86%
- Relative inhibition (MATE2-K; [17]): 1%
- Relative transporter specific accumulation (MATE2-K; [17]): 99.36 ± 6.66 % of control
- Transporter specific accumulation (MATE2-K; [17]): 104.00 ± 1.89 cpm
- maximum inhibition of MATE2-K-mediated metformin accumulation (MATE2-K; follow-up assay): 86%
- IC50 (MATE2-K; [9]): 36.6 µM

SMILES: OC1(c2ccc(Cl)cc2)c2ccccc2C2=NCCN21 (stereo not drawn) [Compound A, 5-(4-chlorophenyl)-2,3-dihydroimidazo[1,2-b]isoindol-5-ol, reference compound]
- IC50 (OCT1): 2.31 µM
- Relative transporter specific accumulation (OCT1; [18]): 91.36 ± 5.98 % of control
- Transporter specific accumulation (OCT1; [18]): 881.00 ± 27.83 cpm
- Relative transporter specific accumulation (OCT1; [19]): 73.95 ± 5.69 % of control
- Transporter specific accumulation (OCT1; [19]): 713.17 ± 36.62 cpm
- Relative transporter specific accumulation (OCT1; [20]): 65.12 ± 6.84 % of control
- Transporter specific accumulation (OCT1; [20]): 628.00 ± 55.27 cpm
- Relative transporter specific accumulation (OCT1; [21]): 51.27 ± 1.85 % of control
- Transporter specific accumulation (OCT1; [21]): 484.33 ± 16.61 cpm
- Relative transporter specific accumulation (OCT1; [22]): 25.23 ± 3.64 % of control
- Transporter specific accumulation (OCT1; [22]): 243.33 ± 32.16 cpm
- Relative transporter specific accumulation (OCT1; [23]): 14.03 ± 4.75 % of control
- Transporter specific accumulation (OCT1; [23]): 135.33 ± 45.14 cpm
- Relative transporter specific accumulation (OCT1; [24]): 15.00 ± 1.09 % of control
- Transporter specific accumulation (OCT1; [24]): 141.67 ± 10.22 cpm
- inhibition at 10 µM (OCT1; human, Maximum % inhibition, OCT1, HEK293 cells, sumatriptan (10 μM), NIO: no inhibition observed): 86%
- inhibition at 0.04 μM (OCT1; human, Relative Inhibition, 0.04 μM nominal, sumatriptan, IC50 determination, Table 122): 9%
- inhibition at 0.12 μM (OCT1; human, Relative Inhibition, 0.12 μM nominal, sumatriptan, IC50 determination, Table 122): 26%
- inhibition at 1.11 μM (OCT1; human, Relative Inhibition, 1.11 μM nominal, sumatriptan, IC50 determination, Table 122): 35%
- inhibition at 10 µM (OCT1; human, Relative Inhibition, 10.00 μM nominal, sumatriptan, IC50 determination, Table 122): 75%
- inhibition at 30 μM (OCT1; human, Relative Inhibition, 30.00 μM nominal, sumatriptan, IC50 determination, Table 122): 86%
- inhibition at 3 μM (OCT1; human, Relative inhibition, 3.00 μM nominal, sumatriptan, Table 121): 49%
- inhibition at 30 μM (OCT1; human, Relative inhibition, 30.00 μM nominal, sumatriptan, Table 121): 85%
- IC50 (MATE2-K): 12.8 µM
- Relative transporter specific accumulation (MATE2-K; [25]): 90.25 ± 3.17 % of control
- Transporter specific accumulation (MATE2-K; [25]): 108.00 ± 2.98 cpm
- Relative transporter specific accumulation (MATE2-K; [26]): 96.94 ± 8.16 % of control
- Transporter specific accumulation (MATE2-K; [26]): 116.00 ± 9.43 cpm
- Relative transporter specific accumulation (MATE2-K; [27]): 89.69 ± 6.53 % of control
- Transporter specific accumulation (MATE2-K; [27]): 107.33 ± 7.45 cpm
- Relative transporter specific accumulation (MATE2-K; 3.00 μM nominal): 97.37 ± 11.23 % of control
- Transporter specific accumulation (MATE2-K; 3.00 μM nominal): 86.33 ± 7.06 cpm
- Relative transporter specific accumulation (MATE2-K; [28]): 51.81 ± 3.80 % of control
- Transporter specific accumulation (MATE2-K; [28]): 62.00 ± 4.35 cpm
- Relative transporter specific accumulation (MATE2-K; 30.00 μM nominal): 27.07 ± 4.56 % of control
- Transporter specific accumulation (MATE2-K; 30.00 μM nominal): 24.00 ± 3.54 cpm
- Relative transporter specific accumulation (MATE2-K; [29]): 20.61 ± 1.94 % of control
- Transporter specific accumulation (MATE2-K; [29]): 24.67 ± 2.26 cpm
- inhibition at 10 µM (MATE2-K; human, Maximum % inhibition, MATE2-K, HEK293 cells, metformin (10 μM), NIO: no inhibition observed): 79%
- inhibition at 0.04 μM (MATE2-K; human, Relative inhibition, 0.04 μM nominal, IC50 determination): 10%
- inhibition at 0.12 μM (MATE2-K; human, Relative inhibition, 0.12 μM nominal, IC50 determination): 3%
- inhibition at 1.11 μM (MATE2-K; human, Relative inhibition, 1.11 μM nominal, IC50 determination): 10%
- inhibition at 3 μM (MATE2-K; human, Relative inhibition, 3.00 μM nominal): 3%
- inhibition at 10 µM (MATE2-K; human, Relative inhibition, 10.00 μM nominal, IC50 determination): 48%
- inhibition at 30 μM (MATE2-K; human, Relative inhibition, 30.00 μM nominal): 73%
- inhibition at 30 μM (MATE2-K; human, Relative inhibition, 30.00 μM nominal, IC50 determination): 79%
